From patent US7807675B2, “Hyaluronic acid-methotrexate conjugate” (priority 2004, dated 2010)
pIC50: −log10 of the molar value.

Tests used:
[1] = tested on: human synovial cells derived from RA patients (HFLS-RA); test: Suppressive effect on proliferation of human synovial cells (HFLS-RA) stimulated by TNF-α; format: cell-based; settings: TNF-α 10 ng/mL, 5 days, [3H]-deoxyuridine uptake, concentration calculated as MTX
Excerpt: (§1) Effects of the HA-MTX conjugates of the invention on cell proliferation induced by TNF-α stimulation were examined using human synovial cells (HFLS). The main lesion in rheumatoid arthritis (RA) occurs in the synovial tissue, and one of the features of RA is known to be that synovial cells abnormally proliferate to form a granulation tissue (pannus) and thereby destroy the cartilage and bone of the joint. Secondary synovitis is also observed in osteoarthritis (OA). […] Thus, a compound inhibiting the proliferation of synovial cells stimulated by an inflammatory cytokine, TNF-α, becomes a drug for suppressing the progression of the pathologic conditions of, or for treating RA and OA.
(§2) The sterile aqueous solutions of the HA-MTX conjugates in Example 3 were used as test substances. As HFLS, human synovial cells derived from RA patients (HFLS-RA, CA404-05, Lot No.: 1493) and human synovial cells derived from OA patients (HFLS-OA, CA400-05, Lot No.: 1442) were purchased from Cell Applications Ins for use.
(§3) HFLS was seeded at 5,000 cells/well on a 96-well plate (Falcon) and cultured for 3 hours in Iscove's modified Dulbecco's medium (IMDM) containing 5% FBS and 1× Antibiotic-Antimycotic (GIBOC). After cellular attachment, TNF-α (final concentration: 10 ng/mL) and each HA-MTX conjugate at each concentration was added, followed by cultivation for 5 days. Two days before the end of culture, was added 37 kBq/well of [^3H]-deoxyuridine in the cells (MORAVEK), followed by determining the uptake quantity (radioactivity) of [^3H]-deoxyuridine using a scintillation counter. Cells were recovered by unsticking them with 0.05% trypsin-0.2% EDTA.
(§4) Radioactivity determined in each of the experiments with each test substance was calculated as a relative value (% of control), using, as control, radioactivity in the group of cells cultured without adding any test substance. Since the concentration of a free carboxyl group is 2.49×10^−3 mol/L (1 g/401/L; 401 is the molecular weight of N-acetylglucosamine+glucuronic acid) for each 1 mg/mL of hyaluronic acid, the MTX concentration in each HA-MTX was calculated by multiplying the value by the conjugation rate of MTX. (For 1 mg/mL of HA-MTX conjugate with a conjugation rate of MTX of 1%, the concentration of MTX was 2.49×10^−5 mol/L) The value obtained was used to calculate the activity of inhibiting cell proliferation (IC50 value) by a 4-parameter logistic method (analysis software: GraphPad Prism 3.02 and 4.02).

[2] = tested on: human synovial cells derived from OA patients (HFLS-OA); test: Suppressive effect on proliferation of human synovial cells (HFLS-OA) stimulated by TNF-α; format: cell-based; settings: TNF-α 10 ng/mL, 5 days, [3H]-deoxyuridine uptake, concentration calculated as MTX
Excerpt: as §1, §2, §3, §4

[3] = tested on: mBSA-induced monoarthritis model; test: Suppressive effect on knee joint swelling in mBSA-induced monoarthritis model; format: in vivo, rat; settings: for AUC (% of control) (mean ± SEM): AUC of knee joint swelling, control = HA-treated group, LEW/Crj rat, 50 μL into right knee joint 7 and 1 day before and 7 days after inducing arthritis
Method: An in vivo synovitis-suppressing effect of each HA-MTX conjugate of the invention was assessed on the basis of a suppressive effect on knee joint swelling in a methylated bovine serum albumin (mBSA)-induced monoarthritis model of rat. Since the mBSA-induced arthritis model employed in this experimental example is widely used as an antigen-induced arthritis model, and known to develop synovitis (Sven E. Andersson, et al., The Journal of Rheumatology (1998) 25: 9, 1772-7), the in vivo knee joint swelling-suppressing effect observed in this model conceivably represents a synovitis-suppressing effect. The compounds of the invention suppressing synovitis in vivo are useful as therapeutic drugs for joint diseases accompanied by synovitis (RA, OA, and the like).
The animal used was the LEW/Crj rat (6-week old male, from Charles River Laboratories Japan, Inc.). Into the flank of the rat was subcutaneously injected 0.5 mL of an emulsion prepared from a 2 mg/mL mBSA (Calbiochem) aqueous solution and an equal amount of Freund's complete adjuvant (Difco) 21 and 14 days before inducing arthritis. The arthritis was induced by administering 50 μL of a 2 mg/mL mBSA aqueous solution into the right knee joint. The left knee joint was untreated, and served as control in each individual. Each test substance (sterile aqueous solution) and the control drug hyaluronic acid were each administered into the right knee joint in an amount of 50 μL 7 and 1 day before and 7 days after inducing arthritis.
The determination of knee joint swelling involved measuring the widths of both knee joints with calipers to define the left/right difference (right knee diameter−left knee diameter) as a knee joint swelling. The width of each knee joint was measured at a frequency of twice a week from immediately before inducing arthritis to two weeks later to calculate AUC (an abbreviation for Area Under the Curve; here, it means an area under a curve with time for the joint swelling) from the transition thereof with time. At each measurement, the mean and standard deviation of AUC were calculated to perform an unpaired t-test between each test substance-treated group and the HA-treated group, and significant difference was judged to be present if the probability level is less than 5%. Statistical analysis used SAS version 6.12 or 8.02 (SAS Institute Japan). In addition, the AUC of each test substance was calculated, using that in the HA-treated group as a control, as a relative value (% of control) therefor.
To verify the usefulness of the HA-MTX conjugate of the invention, the suppressive effect on joint swelling was compared, in accordance with the method of Example 3, among: 1) a group treated with the HA-MTX conjugate (sterile aqueous solution) prepared in Example 3-10; 2) a group treated with a solution containing MTX of an amount equal to that of MTX contained in the HA-MTX conjugate; and 3) a group of treated with a mixture (HA+MTX) of MTX and hyaluronic acid (HA) of amounts equal to those contained in the conjugate. HA and vehicle (2 mM phosphate buffer, 0.9% NaCl) was used as controls. In this Experimental Example, Suvenyl (SVE, Chugai Pharmaceutical Co., Ltd.) was used as HA. The time course of knee joint swelling in this test is shown in FIG. 1, and the AUC thereof in FIG. 2.

Molecule | pIC50 [1] | pIC50 [2] | alleviating effect on synovitis ([3]; Experimental Example 4, arthritis model, amounts equal to those in the conjugate of Example 3-10) | AUC (% of control) (mean ± SEM) [3] | suppressive effect on the joint swelling ([3]; Experimental Example 4, compared to MTX alone or the mixture of MTX and HA in equal amounts, FIGS. 1 and 2)
CN(Cc1cnc2nc(N)nc(N)c2n1)c1ccc(C(=O)N[C@@H](CCC(=O)O)C(=O)O)cc1 [MTX alone, methotrexate] | 6.96 | 6.51 | neither MTX alone nor the mixture of HA and MTX had a sufficient alleviating effect on synovitis | – | –
MTX-α-Ile-NHC10H20O3NHCO—O—[HA] [Example 3-16] | – | 6.64 | – | 65.5 ± 4.4 % of control | –
MTX-α-PheGly-NHC10H20O3NHCO—O—[HA] [Example 3-15] | – | 6.35 | – | 50.1 ± 4.9 % of control | –
MTX-α-PhePhe-NHC10H20O3NHCO—O—[HA] [Example 3-1] | 5.92 | – | – | – | –
MTX-α-PhePhe-NHC10H20O3NHCO—O—[HA] [Example 3-2] | 6.34 | – | – | – | –
MTX-α-PhePhe-NHC10H20O3NHCO—O—[HA] [Example 3-3] | 7.02 | – | – | 59.7 ± 5.4 % of control | –
MTX-α-PhePhe-NHC10H20O3NHCO—O—[HA] [Example 3-4] | – | – | – | 53.6 ± 5.4 % of control | –
MTX-α-PhePhe-NHC10H20O3NHCO—O—[HA] [Example 3-5] | – | – | – | 46.6 ± 4.0 % of control | –
MTX-α-PhePhe-NHC10H20O3NHCO—O—[HA] [Example 3-6] | – | 5.85 | – | 69.7 ± 7.2 % of control | –
MTX-α-PhePhe-NHC10H20O3NHCO—O—[HA] [Example 3-7] | – | 6.39 | – | 47.7 ± 4.3 % of control | –
MTX-α-PhePhe-NHC10H20O3NHCO—O—[HA] [Example 3-8] | – | 6.85 | – | – | –
MTX-α-PhePhe-NHC10H20O3NHCO—O—[HA] [Example 3-9] | – | 6.74 | – | 48.4 ± 2.9 % of control | –
MTX-α-PhePhe-NHC10H20O3NHCO—O—[HA] [Example 3-10] | – | 7.11 | – | 42.3 ± 4.8 % of control | markedly strong suppressive effect on the joint swelling in the arthritis model compared to that of MTX alone or the mixture of MTX and HA
MTX-α-PhePhe-NHC10H20O3NHCO—O—[HA] [Example 3-11] | – | 4.48 | – | 67.1 ± 8.0 % of control | –
MTX-α-PhePhe-NHC10H20O3NHCO—O—[HA] [Example 3-12] | – | 5.70 | – | 49.2 ± 1.2 % of control | –
MTX-α-PhePhe-NHC10H20O3NHCO—O—[HA] [Example 3-13] | – | 6.54 | – | 42.0 ± 4.5 % of control | –
MTX-α-PhePhe-NHC10H20O3NHCO—O—[HA] [Example 3-14] | – | 5.01 | – | – | –
